Results reported in patent US9422307B2, “2,4,7-substituted thieno[3,2-d]pyrimidine compounds as protein kinase inhibitors” (KOREA INSTITUTE OF SCIENCE AND TECHNOLOGY, priority 2009, dated 2016).

Assays:
[1] = tested on: HT-29 human colon adenocarcinoma cells; experiment: Inhibition of proliferation of HT-29 human colon adenocarcinoma cells (MTT assay); format: cell-based; conditions: HT-29 cells, read-out: Inhibition activity against proliferation of the HT-29 cells (GI50)
Protocol: HT-29 human colon adenocarcinoma cells were cultured in DMEM [10% FBS, 1% penicillin/streptomycin] at 37° C. in the presence of 5% CO2. The cultured HT-29 cells were harvested with 0.05% trypsin-0.02% EDTA and seeded in a 96-well plate at 5×10^3 cells per well.
3-(4,5-Dimethylthiazol-2-yl)-2,5-diphenyltetrazolium bromide (MTT) assay (CellTiter 96 Assay, Promega) was used to measure cell viability. After adding 15 μL of a dye per well and culturing for 2 hours, the cells were treated with 100 μL of a stop solution and absorbance was measured 24 hours later. The test compound was treated a day after plating. The test compound had been sequentially diluted at 12 concentrations from a 10 mM stock solution using sterilized dimethylsulfoxide (DMSO) and treated with an amount of 0.5 μL. Absorbance at 590 nm was recorded using EnVision2103, and GI50 value was calculated using GraphPad Prism 4.0 software.

[2] = molecular target: Full sequence FAK (Homo sapiens (Human), UniProt Q05397); experiment: Measurement of FAK kinase activity (ULight-LANCE assay); format: biochemical; conditions: TR-FRET, 3 nM FAK, 10 μM ATP; read-out: FAK inhibition activity (IC50)
Protocol: ULight-poly GT (PerkinElmer #TRF0100-D), Eu-anti-phospho-Tyr (PT66) (PerkinElmer #AD0068) and Lance detection buffer (PerkinElmer #CR-97-100) were purchased from PerkinElmer. […] 4× ULight-poly GT was adjusted to a final concentration of 100 nM. ATP (Sigma #A2383) was adjusted to a final concentration of 10 μM and in 2.5 μL aliquots. The test compound was sequentially diluted at 12 concentrations and treated with an amount of 0.5 μL. After shaking well and allowing to react at room temperature for 60 minutes, 5 μL of ethylenediaminetetraacetic acid (EDTA, final concentration 40 mM) diluted in Lance detection buffer (Lance detection buffer) was added and the mixture was left at room temperature for 5 minutes to stop the reaction. After adding 4× Eu-anti-phospho-Tyr (PT66) phosphorylated antibody diluted to a final concentration of 2 nM in detection buffer with an amount of 5 μL, and reaction was performed at room temperature for 60 minutes.

[3] = tested on: prostate cancer PC-3, breast cancer BT-474, colon LoVo, lung cancer NCI-H460, glioblastoma U-87 MG and pancreatic cancer BxPC-3 cells; conditions: cited from earlier work
[4] = tested on: tumor; conditions: concurrent administration with docetaxel, animal model, P values<0.01; cited from earlier work

Sequence of Full sequence FAK (Q05397 whole entry): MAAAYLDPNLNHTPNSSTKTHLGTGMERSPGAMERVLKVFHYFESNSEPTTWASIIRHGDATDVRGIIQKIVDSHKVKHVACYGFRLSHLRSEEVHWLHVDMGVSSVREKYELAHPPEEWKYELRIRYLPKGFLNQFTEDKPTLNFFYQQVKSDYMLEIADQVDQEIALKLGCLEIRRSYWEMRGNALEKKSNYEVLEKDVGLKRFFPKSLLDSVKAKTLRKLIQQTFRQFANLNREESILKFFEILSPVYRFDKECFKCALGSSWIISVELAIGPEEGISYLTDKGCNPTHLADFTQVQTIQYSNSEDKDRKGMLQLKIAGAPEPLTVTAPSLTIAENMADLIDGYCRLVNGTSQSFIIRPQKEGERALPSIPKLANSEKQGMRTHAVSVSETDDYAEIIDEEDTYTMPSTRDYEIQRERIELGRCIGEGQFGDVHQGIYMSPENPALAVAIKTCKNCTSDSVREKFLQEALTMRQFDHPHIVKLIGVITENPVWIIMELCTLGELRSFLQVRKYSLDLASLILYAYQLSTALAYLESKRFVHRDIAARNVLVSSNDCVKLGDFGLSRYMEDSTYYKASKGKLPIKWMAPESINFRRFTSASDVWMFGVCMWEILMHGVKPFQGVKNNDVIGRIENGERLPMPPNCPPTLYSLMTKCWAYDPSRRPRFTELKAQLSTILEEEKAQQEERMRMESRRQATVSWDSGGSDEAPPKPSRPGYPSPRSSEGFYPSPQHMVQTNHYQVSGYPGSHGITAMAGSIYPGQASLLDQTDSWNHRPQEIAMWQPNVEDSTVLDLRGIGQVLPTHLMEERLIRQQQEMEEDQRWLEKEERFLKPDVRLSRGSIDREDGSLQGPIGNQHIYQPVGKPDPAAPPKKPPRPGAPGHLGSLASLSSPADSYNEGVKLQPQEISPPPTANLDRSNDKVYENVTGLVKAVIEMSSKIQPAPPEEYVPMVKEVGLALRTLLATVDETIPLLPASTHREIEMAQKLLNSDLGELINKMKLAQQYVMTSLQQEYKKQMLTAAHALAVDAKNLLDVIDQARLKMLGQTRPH

GI50 [1] [µM]	IC50 [2] [µM]	Structure (SMILES)	inhibition of tumor growth or tumor degeneration ([3]; human tumor xenograft, 25-100 mg/kg p.o.)	toxicity observed ([3]; in vivo)	tumor reduction [4]
< 10	< 10	C=Cc1csc2c(NCc3ccccc3)nc(NCCN3CCOCC3)nc12 [Example 46, N^4-benzyl-N^2-(2-morpholinoethyl)-7-vinylthieno[3,2-d]pyrimidin-2,4-diamine]	–	–	–
–	–	CN(c1ncccc1CNc1nc(Nc2ccc3c(c2)CC(=O)N3)ncc1C(F)(F)F)S(C)(=O)=O [PF-562271]	42-90%	No special toxicity has been observed	–
< 10	< 10	CNC(=O)c1cccc(-c2csc3c(N)nc(Nc4ccc(N5CCOCC5)nc4)nc23)c1 [Example 2, 3-(4-amino-2-(6-morpholinopyridin-3-ylamino)thieno[3,2-d]pyrimidin-7-yl)-N-methylbenzamide]	–	–	–
–	–	CNC(=O)c1ccccc1Nc1nc(Nc2ccc(N3CCOCC3)cc2OC)ncc1Cl [TAE226]	–	–	85-97%
< 10	< 10	CNC(=O)c1cccc(-c2csc3c(N)nc(Nc4ccc(N5CCC(O)CC5)cc4)nc23)c1 [Example 3, 3-(4-amino-2-(4-(4-hydroxypiperidin-1-yl)phenylamino)thieno[3,2-d]pyrimidin-7-yl)-N-methylbenzamide]	–	–	–
< 10	< 10	CCN1CCN(c2ccc(Nc3nc(N)c4scc(-c5cccc(NS(C)(=O)=O)c5)c4n3)cn2)CC1 [Example 27, N-(3-(4-amino-2-(6-(4-ethylpiperazin-1-yl)pyridin-3-ylamino)thieno[3,2-d]pyrimidin-7-yl)phenyl)methanesulfonamide]	–	–	–
< 10	< 10	CCN1CCN(c2cccc(Nc3nc(N)c4scc(-c5cnc6ccccc6c5)c4n3)c2)CC1 [Example 43, N^2-(3-(4-ethylpiperazin-1-yl)phenyl)-7-(quinolin-3-yl)thieno[3,2-d]pyrimidin-2,4-diamine]	–	–	–
< 10	< 10	CCS(=O)(=O)Nc1cccc(-c2csc3c(N)nc(Nc4cc(OC)c(OC)c(OC)c4)nc23)c1 [Example 17, N-(3-(4-amino-2-(3,4,5-trimethoxyphenylamino)thieno[3,2-d]pyrimidin-7-yl)phenyl)ethanesulfonamide]	–	–	–
< 10	< 10	CNS(=O)(=O)c1cccc(-c2csc3c(N)nc(Nc4cc(OC)c(OC)c(OC)c4)nc23)c1 [Example 26, 3-(4-amino-2-(3,4,5-trimethoxyphenylamino)thieno[3,2-d]pyrimidin-7-yl)-N-methylbenzenesulfonamide]	–	–	–
< 10	< 10	Nc1nc(Nc2ccc(N3CCOCC3)nc2)nc2c(-c3cnc4ccccc4c3)csc12 [Example 42, N^2-(6-morpholinopyridin-3-yl)-7-(quinolin-3-yl)thieno[3,2-d]pyrimidin-2,4-diamine]	–	–	–
< 10	< 10	CCN1CCN(c2ccc(Nc3nc(N)c4scc(-c5cccc(C(=O)NC)c5)c4n3)cc2)CC1 [Example 6, 3-(4-amino-2-(4-(4-ethylpiperazin-1-yl)phenylamino)thieno[3,2-d]pyrimidin-7-yl)-N-methylbenzamide]	–	–	–
< 10	< 10	CCc1csc2c(NCc3ccccc3)nc(NCCN3CCOCC3)nc12 [Example 48, N^4-benzyl-7-ethyl-N^2-(2-morpholinoethyl)thieno[3,2-d]pyrimidin-2,4-diamine]	–	–	–
< 10	< 10	C=Cc1csc2c(N[C@H](C)c3ccccc3)nc(NCCN3CCOCC3)nc12 [Example 47, (R)—N^2-(2-morpholinoethyl)-N^4-(1-phenylethyl)-7-vinylthieno[3,2-d]pyrimidin-2,4-diamine]	–	–	–
< 10	< 10	C#Cc1csc2c(N[C@H](C)c3ccccc3)nc(NC[C@H](C)O)nc12 [Example 45, (S)-1-(7-ethynyl-4-((R)-1-phenylethylamino)thieno[3,2-d]pyrimidin-2-ylamino)propan-2-ol]	–	–	–
< 10	< 10	CCN1CCN(c2ccc(Nc3nc(N)c4scc(-c5cnc6ccccc6c5)c4n3)cc2)CC1 [Example 41, N^2-(4-(4-ethylpiperazin-1-yl)phenyl)-7-(quinolin-3-yl)thieno[3,2-d]pyrimidin-2,4-amine]	–	–	–
< 10	< 10	CNC(=O)c1cccc(-c2csc3c(N)nc(Nc4ccc(N5CCC(N6CCCC6)CC5)cc4)nc23)c1 [Example 7, 3-(4-amino-2-(4-(4-(pyrrolidin-1-yl)piperidin-1-yl)phenylamino)thieno[3,2-d]pyrimidin-7-yl)-N-methylbenzamide]	–	–	–
< 10	< 10	COc1cc(Nc2nc(N)c3scc(-c4cccc(NC(=O)C5CC5)c4)c3n2)cc(OC)c1OC [Example 15, N-(3-(4-amino-2-(3,4,5-trimethoxyphenylamino)thieno[3,2-d]pyrimidin-7-yl)phenyl)cyclopropanecarboxamide]	–	–	–
< 10	–	C#Cc1csc2c(NCc3ccccc3)nc(NC[C@H](C)O)nc12 [Example 44, (S)-1-(4-(benzylamino)-7-ethynylthieno[3,2-d]pyrimidin-2-ylamino)propan-2-ol]	–	–	–
< 10	< 10	CCN1CCN(c2ccc(Nc3nc(N)c4scc(-c5cnc6ccccc6c5)c4n3)cn2)CC1 [Example 39, N^2-(6-(4-ethylpiperazin-1-yl)pyridin-3-yl)-7-(quinolin-3-yl)thieno[3,2-d]pyrimidin-2,4-diamine]	–	–	–
